This note sets out measurements from patent US11654169B2, “Methods for protecting skin and/or promoting wound healing” (SINPHAR PHARMACEUTICAL CO., LTD., priority 2016, dated 2023).

Assay type in all cases: cell-based
The subject of assay [1] is normal primary human skin fibroblastic cells. Kind of assay: Content of collagen in cell medium (extracellular collagen) of fibroblasts (Western blot and ELISA), relative to control. The conditions noted are these: 48 hours; for relative content of collagen in the medium (extracellular content of collagen): control group = 100%; for extracellular contents of collagen (collagen in cell medium) as compared to the control group (in words): treated cells vs control group. Here is the method:
The normal primary human skin fibroblastic cells (purchased from ATCC) were cultivated in a Fibroblast Growth Medium. The cells thus provided were used in the following experiments.
The normal primary human skin fibroblastic cells provided by [Preparation Example C] were divided into 4 groups and were respectively cultivated with the following medium for 48 hours: • 1. Group I: a Fibroblast Growth Medium; • 2.
(§1) Thereafter, the cell medium of each group was collected and concentrated. Then, the intracellular content of collagen, the content of collagen in cell medium (i.e., extracellular content of collagen) and the content of hyaluronic acid in cell medium were measured and analyzed by Western blot and enzyme-linked immunosorbent assay (ELISA).
(§2) The normal primary human skin fibroblastic cells provided by [Preparation Example C] were divided into 37 groups and were respectively cultivated with the following medium for 48 hours: • 1. Group 1: a Fibroblast Growth Medium • 2. Group 2-1 to 2-3: Fibroblast Growth Media containing the pachymic acid (PA) provided by [Preparation Example B] at a concentration of 0.01, 0.1 and 1 μM, respectively; • 3. Group 3-1 to 3-3: Fibroblast Growth Media containing the dehydropachymic acid (DPA) provided by [Preparation Example B] at a concentration of 0.01, 0.1 and 1 μM, respectively; • 4. Group 4-1 to 4-3: Fibroblast Growth Media containing the tumulosic acid (TA) provided by [Preparation Example B] at a concentration of 0.01, 0.1 and 1 μM, respectively; • 5. Group 5-1 to 5-3: Fibroblast Growth Media containing the dehydrotumulosic acid (DTA) provided by [Preparation Example B] at a concentration of 0.01, 0.1 and 1 μM, respectively; • 6. Group 6-1 to 6-3: Fibroblast Growth Media containing the polyporenic acid C (PAC) provided by [Preparation Example B] at a concentration of 0.01, 0.1 and 1 μM, respectively; • 7. Group 7-1 to 7-3: Fibroblast Growth Media containing the 3-epi-dehydrotumulosic acid (EDTA) provided by [Preparation Example B] at a concentration of 0.01, 0.1 and 1 μM, respectively; • 8. Group 8-1 to 8-3: Fibroblast Growth Media containing the dehydrotrametenolic acid (DTTA) provided by [Preparation Example B] at a concentration of 0.01, 0.1 and 1 μM, respectively; • 9. Group 9-1 to 9-3: Fibroblast Growth Media containing the trametenolic acid (TTA) provided by [Preparation Example B] at a concentration of 0.01, 0.1 and 1 μM, respectively; • 10. Group 10-1 to 10-3: Fibroblast Growth Media containing the poricoic acid A (PAA) provided by [Preparation Example B] at a concentration of 0.01, 0.1 and 1 μM, respectively; • 11. Group 11-1 to 11-3: Fibroblast Growth Media containing the dehydroeburicoic acid (DEA) provided by [Preparation Example B] at a concentration of 0.01, 0.1 and 1 μM, respectively; • 12. Group 12-1 to 12-3: Fibroblast Growth Media containing the poricoic acid B (PAB) provided by [Preparation Example B] at a concentration of 0.01, 0.1 and 1 μM, respectively; • 13. Group 13-1 to 13-3: Fibroblast Growth Media containing the eburicoic acid (EA) provided by [Preparation Example B] at a concentration of 0.01, 0.1 and 1 μM, respectively.
The content of collagen in the medium of each group (i.e., extracellular content of collagen) was provided.
On the technique in general: In western blotting, separated proteins are transferred to a membrane and probed.

The test system is the same in assay [2]. Briefly: Intracellular content of collagen in fibroblasts (Western blot and ELISA), relative to control. The conditions noted are these: 48 hours; for relative intracellular content of collagen: control group = 100%; for intracellular contents of collagen as compared to the control group (in words): treated cells vs control group. How it is done: (§3) The normal primary human skin fibroblastic cells (purchased from ATCC) were cultivated in a Fibroblast Growth Medium. The cells thus provided were used in the following experiments. […]
as §2
Thereafter, the cell medium of each group was collected and concentrated. Then, the intracellular content of collagen was measured and analyzed by Western blot and enzyme-linked immunosorbent assay (ELISA).

For assay [3] the test system is unchanged. Kind of assay: Content of hyaluronic acid in cell medium of fibroblasts (Western blot and ELISA), relative to control. The note with it: 48 hours; for relative content of hyaluronic acid in the medium (extracellular content of hyaluronic acid): control group = 100%; for contents of hyaluronic acid as compared to the control group (in words) / contents of hyaluronic acid, ingredients singled out as stronger (in words): treated cells vs control group; for contents of hyaluronic acid, ingredients singled out as stronger (in words): compared with the other active ingredients. How it is done:
as §3, §1, §2
The content of hyaluronic acid in the medium of each group (i.e., extracellular content of hyaluronic acid) was provided.

On to `C=C(CC[C@@H](C(=O)O)[C@H]1[C@H](O)C[C@@]2(C)C3=CC[C@H]4C(C)(C)[C@H](O)CC[C@]4(C)C3=CC[C@]12C)C(C)C` [3-epi-dehydrotumulosic acid (EDTA), 3-epi-dehydrotumulosic acid], for which the “relative content of collagen in the medium (extracellular content of collagen)” value (“relative content of collagen” below) in assay [1] (0.01 μM) was determined as 98%; in assay [1] (0.1 μM) it was 104%; in assay [1] (1 μM), 111%. The “extracellular contents of collagen (collagen in cell medium) as compared to the control group (in words)” value in assay [1] is reported as “significantly enhanced”. The “relative intracellular content of collagen” value in assay [2] (0.01 μM) is 87%; in assay [2] (0.1 μM) it was 100%; in assay [2] (1 μM) it was 80%. Also, the figures for the “relative content of hyaluronic acid in the medium (extracellular content of hyaluronic acid)” value (“relative content of hyaluronic acid” below) in assay [3] (0.01 μM), in assay [3] (0.1 μM) and in assay [3] (1 μM) were 105%, 122% and 140%, respectively. In addition, in assay [3], the “contents of hyaluronic acid as compared to the control group (in words)” value was “significantly enhanced”. Also, the “contents of hyaluronic acid, ingredients singled out as stronger (in words)” value (“contents … as stronger (in words)” for short) in assay [3] is “enhanced more significantly”.

With `C=C(CC[C@@H](C(=O)O)[C@H]1CC[C@@]2(C)C3=CC[C@H]4C(C)(C)[C@@H](O)CC[C@]4(C)C3=CC[C@]12C)C(C)C` [Dehydroeburicoic acid (DEA), dehydroeburicoic acid], the “relative content of collagen” value is on record as 143% in assay [1] (0.01 μM), 148% in assay [1] (0.1 μM) and 185% in assay [1] (1 μM). In assay [1], the “extracellular contents of collagen (collagen in cell medium) as compared to the control group (in words)” value is reported as “significantly enhanced”. Moreover, the “relative intracellular content of collagen” value in assay [2] (0.01 μM) is 94%; in assay [2] (0.1 μM) it was 80%; in assay [2] (1 μM) it was 77%. Further, the “relative content of hyaluronic acid” value in assay [3] (0.01 μM) is given as 115%; in assay [3] (0.1 μM) it was 118%; in assay [3] (1 μM), 128%. For the same molecule, the “contents of hyaluronic acid as compared to the control group (in words)” value in assay [3] is “significantly enhanced”.

Regarding `C=C(CCC(C(=O)O)[C@H]1[C@H](O)C[C@@]2(C)C3=CC[C@H]4C(C)(C)[C@@H](OC(C)=O)CC[C@]4(C)C3=CC[C@]12C)C(C)C` (some centres unmarked) [Dehydropachymic acid (DPA), dehydropachymic acid], the entries for the “relative content of collagen” value in assay [1] (0.01 μM), in assay [1] (0.1 μM) and in assay [1] (1 μM) were 124%, 122% and 116%, respectively. The “extracellular contents of collagen (collagen in cell medium) as compared to the control group (in words)” value in assay [1] is given as “significantly enhanced”. The “relative intracellular content of collagen” value in assay [2] (0.01 μM) was 154%; in assay [2] (0.1 μM), 188%; in assay [2] (1 μM), 122%. Besides, the “intracellular contents of collagen as compared to the control group (in words)” value in assay [2] is “significantly enhanced”. For the same molecule, the “relative content of hyaluronic acid” value worked out at 111% in assay [3] (0.01 μM), 131% in assay [3] (0.1 μM) and 152% in assay [3] (1 μM). Further, the “contents of hyaluronic acid as compared to the control group (in words)” value in assay [3] was “significantly enhanced”. The “contents … as stronger (in words)” value in assay [3] is “enhanced more significantly”.

For `CC(C)=CCC[C@@H](C(=O)O)[C@H]1CC[C@@]2(C)C3=CC[C@H]4C(C)(C)[C@@H](O)CC[C@]4(C)C3=CC[C@]12C` [Dehydrotrametenolic acid (DTTA), dehydrotrametenolic acid], the “relative content of collagen” value in assay [1] (0.01 μM) is recorded as 117%; in assay [1] (0.1 μM) it was 158%; in assay [1] (1 μM), 131%. Also, the “extracellular contents of collagen (collagen in cell medium) as compared to the control group (in words)” value in assay [1] was “significantly enhanced”. In addition, the “relative intracellular content of collagen” value in assay [2] (0.01 μM) was 190%; in assay [2] (0.1 μM) it was 174%; in assay [2] (1 μM) it was 118%. Also, the “intracellular contents of collagen as compared to the control group (in words)” value in assay [2] is “significantly enhanced”. The “relative content of hyaluronic acid” value was found to be 99% in assay [3] (0.01 μM), 87% in assay [3] (0.1 μM) and 108% in assay [3] (1 μM).

As for `C=C(CC[C@@H](C(=O)O)[C@H]1[C@H](O)C[C@@]2(C)C3=CC[C@H]4C(C)(C)[C@@H](O)CC[C@]4(C)C3=CC[C@]12C)C(C)C` [Dehydrotumulosic acid (DTA), dehydrotumulosic acid], the “relative content of collagen” value in assay [1] (0.01 μM) is 122%; in assay [1] (0.1 μM), 105%; in assay [1] (1 μM), 139%. In addition, the “extracellular contents of collagen (collagen in cell medium) as compared to the control group (in words)” value in assay [1] is “significantly enhanced”. The “relative intracellular content of collagen” value in assay [2] (0.01 μM) worked out at 159%; in assay [2] (0.1 μM), 156%; in assay [2] (1 μM) it was 127%. Also, the “intracellular contents of collagen as compared to the control group (in words)” value in assay [2] was “significantly enhanced”. The “relative content of hyaluronic acid” value is on record as 112% in assay [3] (0.01 μM), 134% in assay [3] (0.1 μM) and 168% in assay [3] (1 μM). Besides, the “contents of hyaluronic acid as compared to the control group (in words)” value in assay [3] was “significantly enhanced”. In addition, the “contents … as stronger (in words)” value in assay [3] was “enhanced more significantly”.

For the molecule `C=C(CC[C@@H](C(=O)O)[C@H]1CC[C@@]2(C)C3=C(CC[C@]12C)[C@@]1(C)CC[C@H](O)C(C)(C)[C@@H]1CC3)C(C)C` [Eburicoic acid (EA), eburicoic acid], the “relative content of collagen” value is reported as 108% in assay [1] (0.01 μM), 106% in assay [1] (0.1 μM) and 88% in assay [1] (1 μM). In addition, in assay [1], the “extracellular contents of collagen (collagen in cell medium) as compared to the control group (in words)” value is listed as “significantly enhanced”. The “relative intracellular content of collagen” value in assay [2] (0.01 μM) is 102%; in assay [2] (0.1 μM), 97%; in assay [2] (1 μM), 95%. Besides, the “relative content of hyaluronic acid” value in assay [3] (0.01 μM) was 94%; in assay [3] (0.1 μM), 107%; in assay [3] (1 μM), 120%. Moreover, the “contents of hyaluronic acid as compared to the control group (in words)” value in assay [3] is given as “significantly enhanced”.

As for `C=C(CC[C@@H](C(=O)O)[C@H]1[C@H](O)C[C@@]2(C)C3=C(CC[C@]12C)[C@@]1(C)CC[C@H](OC(C)=O)C(C)(C)[C@@H]1CC3)C(C)C` [Pachymic acid (PA), pachymic acid], the figures for the “relative content of collagen” value in assay [1] (0.01 μM), in assay [1] (0.1 μM) and in assay [1] (1 μM) were 117%, 116% and 106%, respectively. Also, the “relative intracellular content of collagen” value in assay [2] (0.01 μM) is on record as 172%; in assay [2] (0.1 μM), 235%; in assay [2] (1 μM) it was 211%. The “relative content of hyaluronic acid” value in assay [3] (0.01 μM) was determined as 98%; in assay [3] (0.1 μM) it was 132%; in assay [3] (1 μM), 140%.
